The values below come from article PMC10296238, “A Magnetic-Bead-Based Immunoassay with a Newly Developed Monoclonal Antibody for Rapid and Highly Sensitive Detection of Forchlorfenuron” (Biosensors, 2023).

Data set [1] has as its system anti-CPPU mAb 14G1–HRP. Briefly: direct competitive magnetic-bead (MB)-based assay with mAb 14G1–HRP. As to conditions: for MB-Based Assay CR: CR = IC50 of CPPU/IC50 of analyte × 100%. In kind it is binding, mouse. The procedure: A direct competitive MB-based assay was developed as follows. First, the 96-well microtiter plate was pre-sealed with 5% skim milk at 37 °C for 1 h. After washing with PBST, MB–CPPU–BSA (10 μg/μL, 10 μL per well) was added to the 96-well plate. Subsequently, 50 μL of serially diluted CPPU standards and 50 μL of diluted mAb–HRP (1:3200) were mixed into the wells. The plate was shaken well and incubated at 37 °C for 20 min and then placed on a magnetic base to precipitate the MB. Then, the supernatant was discarded, and the plate was washed three times with PBST. After washing, TMB substrate (100 μL per well) was added and incubated for 15 min at 37 °C. The reaction was stopped with 2 M H2SO4, and the absorbance was measured at a wavelength of 450 nm.
The reaction parameters greatly influence assay sensitivity. Therefore, the experimental parameters including concentrations of MB–CPPU–BSA and mAb–HRP, ionic strength, pH value, and organic solvent content in buffer were investigated to improve the sensitivity of the MB-based assay. After optimization, the standard curve for the MB-based assay was generated by plotting the B/B0 (B and B0 were defined as the OD450 in the presence and absence of CPPU, respectively) against the logarithm of CPPU concentration. The 50% inhibitory concentration value (IC50) calculated from the curves was used to evaluate assay sensitivity.
(§1) The cross-reactivities (CRs) of the developed MB-based assay and icELISA with compounds structurally related to CPPU were used to evaluate the selectivity of the assays. The CR value of each compound was calculated as follows: CR (%) = (IC50 of CPPU/IC50 of analyte) × 100%.
To obtain better analytical performance of the MB-based assay, the reaction conditions were investigated. First of all, the working concentrations of MB–CPPU–BSA and mAb 14G1–HRP were determined by checkerboard titration as 0.1 mg/mL and 1:6400 dilution, respectively (Table S1). Then, the influence of other parameters on the assay was also optimized, in which the IC50 value was used as the main criterion. The effects of different ionic strengths and different pH values of the PBS solution on antigen–antibody binding in the MB-based assay were evaluated (Figure S4a,b). […] The optimal methanol concentration was selected to be 5% for the lower IC50. To shorten the detection duration, the incubation time for the competitive reaction between MB–CPPU–BSA and free-CPPU for binding to mAb–HRP tracer was optimized in sequence. […] Shorter incubation times may result in insufficient antigen–antibody binding, while longer incubation times not only further increased the maximum intensity but also led to higher background signals from non-specific binding. Therefore, incubation was stopped after 20 min, and beads were washed to remove unbound antibody.

A further data set deals with anti-CPPU mAb 14G1. Briefly: conventional indirect competitive ELISA (icELISA) based on mAb 14G1. In kind it is binding, mouse. As to conditions: for icELISA CR: CR = IC50 of CPPU/IC50 of analyte × 100%. As for the experimental part: A conventional icELISA was developed for CPPU detection as follows: 0.5 μg/mL CPPU–BSA was dropped into the 96-well microplate (100 μL/well) and incubated overnight at 4 °C. The plates were blocked at 37 °C with 5% skim milk in PBST (PBS containing 0.05% Tween 20) for 1 h. After washing the plate with PBST three times, 50 μL of mAb 14G1 and 50 μL of sequentially diluted CPPU standard solution were added. The plate was incubated for 1 h at 37 °C, washed three times, and 100 μL/well of goat anti-mouse lgG-HRP solution was added for another 1 h of incubation. After washing six times, 100 μL/well of TMB substrate was added to the plate and reacted for 15 min. Finally, 2 M H2SO4 (50 μL/well) was added into the plate to stop the reaction, and the OD450 value was read with a microplate reader.
as §1
The experimental conditions of conventional icELISA were optimized. The evaluation criteria were the 50% inhibition concentration (IC50; representing the sensitivity) and maximum absorbance (ODmax) of the negative control. The working concentrations of the CPPU–BSA conjugate and mAb 14G1 were primarily optimized by a checkerboard titration. The concentration of CPPU–BSA coated in the plate was diluted from 2.0 μg/mL to 0.25 μg /mL, and anti-CPPU mAb 14G1 was diluted in a series of two-fold dilutions from 1:2000. […] After optimization, the concentrations of CPPU–BSA and mAb 14G1 were 0.5 μg/mL and 0.016 μg/mL for icELISA (Figure S2a). Then, the process parameters of icELISA were optimized through single-factor experiments. The influence of blocking reagents commonly used in ELISA systems, OVA, skim milk, and BSA, were evaluated and compared for their effectiveness in reducing nonspecific binding. Finally, 5% skim milk was selected, which gave a minimum IC50 value (Figure S2b). CPPU is a lipophilic, small organic compound, and methanol has been reported to be a more acceptable co-solvent for CPPU during the immunochemical reaction. The effect of methanol concentration on immunoassay performance was assessed. […] The ionic strength of 136 mM, which provided the lowest IC50 value, was selected. The pH value is one of the key factors influencing the characteristics of the assay. From Figure S2e, the value of pH 7.4 was selected as the optimum for the assay based on the favorable IC50 value. Under the optimal assay conditions, an indirect competitive ELISA standard curve was established (Figure 3). […] Moreover, the assay has a linear range (IC20–IC80) of 0.005–0.231 ng/mL.

A further data set deals with mAb. As to conditions: cited from earlier work.
The test system of the next data set is mAb (s5#34). As to conditions: cited from earlier work.
The next data set deals with mAb against CPPU. As to conditions: cited from earlier work.
The test system of another data set is pAb. Also on record: method as in earlier work. As to conditions: cited from earlier work.
Data set [2] deals with anti-CPPU mAb 14G1–HRP. Put plainly: direct competitive magnetic-bead (MB)-based assay with mAb 14G1–HRP. In kind it is binding, mouse.
A further data set has as its system rats. As to conditions: cited from earlier work.
The test system of a further data set is mAb, P6#42. As to conditions: cited from earlier work.
In the next data set the test system is zebrafish. As to conditions: cited from earlier work.

SMILES strings stand for the structures. ≈ marks a conversion by molar mass, not a printed value.

Turning to `Cc1ccc(NC(=O)N(C)C)cc1Cl` [Chlorotoluron], the “MB-Based Assay CR” value in the data set on anti-CPPU mAb 14G1–HRP [1] is <0.6%. Moreover, the “MB-Based Assay IC50” value in the data set with anti-CPPU mAb 14G1–HRP [1] (optimized conditions) is given as >1.0 ng/mL. Further, in the data set with anti-CPPU mAb 14G1, the “icELISA CR” value was <1.0%. For the same compound, in the data set with anti-CPPU mAb 14G1 (optimal assay conditions), the “icELISA IC50” value is >2.5 ng/mL.
In the same order, the values of `Clc1ccccc1-c1nnc(-c2ccccc2Cl)nn1` [Clofentezine] are <0.6%, >1.0 ng/mL, <1.0% and >2.5 ng/mL.
In the same order, the values of `CN(C)C(=O)Nc1ccc(Cl)c(Cl)c1` [Diuron] are <0.6%, >1.0 ng/mL, <1.0% and >2.5 ng/mL.
For `O=C(Nc1ccccc1)Nc1ccnc(Cl)c1` [Forchlorfenuron (CPPU), Forchlorfenuron], the “MB-Based Assay CR” value in the data set with anti-CPPU mAb 14G1–HRP [1] is given as 100%. In addition, the “estimated LOD in grape, MB-based assay” value with anti-CPPU mAb 14G1–HRP [1] (grape, considering dilution factor of the sample (100-fold)) was 0.0168 µg/kg. Also, the “estimated LOD in kiwifruit, MB-based assay” value with anti-CPPU mAb 14G1–HRP [1] (kiwifruit, considering dilution factor of the sample (100-fold)) was 0.0191 µg/kg. For the same compound, in the data set with anti-CPPU mAb 14G1–HRP [1] (optimized conditions), the “MB-Based Assay IC50” value was determined as 0.0061 ng/mL, the “MB-based assay LOD” value amounted to 0.0004 ng/mL and the “MB-based assay linear detection range (IC20–IC80)” value is 0.0016 to 0.0259 ng/mL. In addition, in the data set with mAb, the “icELISA (mAb) LOD” value is 0.013 ng/mL and the “icELISA (mAb) linear range” value was 0.022 to 0.156 ng/mL. Moreover, the “dcELISA (mAb) LOD” value in the data set with mAb (s5#34) is on record as 0.01 ng/mL. The “dcELISA IC50” value in the data set with mAb (s5#34) (in buffer) is 0.063 ng/mL. Further, in the data set on mAb against CPPU, the “icELISA IC50” value is reported as 1.04 ng/mL, the “icELISA LOD” value is recorded as 0.16 ng/mL and the icELISA linear range was 0.31 to 3.43 ng/mL. In addition, the “icELISA IC50 during optimization” value in the data set with anti-CPPU mAb 14G1 (5% methanol, Figure S2c) is recorded as 0.0372 ng/mL. The “icELISA CR” value in the data set with anti-CPPU mAb 14G1 was found to be 100%. Besides, in the data set with anti-CPPU mAb 14G1 (optimal assay conditions), the “icELISA IC50” value is on record as 0.0253 ng/mL; the “icELISA limit of detection (LOD, IC10)” value is 0.002 ng/mL; the “icELISA linear range (IC20–IC80)” value was in the range of 0.005 to 0.231 ng/mL. Besides, in the data set with pAb, the “dcELISA (pAb) IC50” value is 0.077 ng/mL, the “dcELISA (pAb) LOD” value is listed as 0.012 ng/mL and the “dcELISA (pAb) linear range” value was 0.025-0.276 ng/mL. For the same compound, the “IC50, MB-based assay optimization” value with anti-CPPU mAb 14G1–HRP [2] (mAb-HRP 1:400, MB-CPPU-BSA 0.0125 μg/μL) turned out to be 0.0315 ng/mL (≈ 0.127 nM). Also, in the data set on anti-CPPU mAb 14G1–HRP [2] (mAb-HRP 1:800, MB-CPPU-BSA 0.025 μg/μL), the “IC50, MB-based assay optimization” value is reported as 0.0147 ng/mL (≈ 0.0593 nM). Also, the “IC50, MB-based assay optimization” value with anti-CPPU mAb 14G1–HRP [2] (mAb-HRP 1:1600, MB-CPPU-BSA 0.05 μg/μL) was 0.0139 ng/mL (≈ 0.0561 nM). Besides, the “IC50, MB-based assay optimization” value in the data set with anti-CPPU mAb 14G1–HRP [2] (mAb-HRP 1:3200, MB-CPPU-BSA 0.10 μg/μL) was 0.0132 ng/mL (≈ 0.0533 nM). The “IC50, MB-based assay optimization” value with anti-CPPU mAb 14G1–HRP [2] (mAb-HRP 1:6400, MB-CPPU-BSA 0.20 μg/μL) came to 0.0140 ng/mL (≈ 0.0565 nM). Also, in the data set with rats, the “toxic effects in rats” value is “potential adverse effects on the ovaries and on the production of steroid hormones”. In the data set on mAb, P6#42, the “LFIA IC50” value is 0.286 ng/mL, the “LFIA LOD” value was 0.045 ng/mL and the LFIA linear range was 0.089 to 0.916 ng/mL. Further, the “toxic effects in zebrafish” value in the data set on zebrafish was “cardiac morphology deformation, cardiac contractile dysfunction, and erythrocyte reduction”.
In the case of `CON(C)C(=O)Nc1ccc(Cl)c(Cl)c1` [Linuron], the “MB-Based Assay CR” value with anti-CPPU mAb 14G1–HRP [1] is <0.6%. Further, the “MB-Based Assay IC50” value with anti-CPPU mAb 14G1–HRP [1] (optimized conditions) is reported as >1.0 ng/mL. Besides, the “icELISA CR” value in the data set on anti-CPPU mAb 14G1 was <1.0%. In the data set on anti-CPPU mAb 14G1 (optimal assay conditions), the “icELISA IC50” value was >2.5 ng/mL.
`O=C(Nc1ccccc1)Nc1cnns1` [Thidiazuron]: the “MB-Based Assay CR” value in the data set with anti-CPPU mAb 14G1–HRP [1] is given as <0.6%; with anti-CPPU mAb 14G1–HRP [1] (listed as thidiazuron) it was “negligible cross-reaction”. Besides, the “MB-Based Assay IC50” value in the data set on anti-CPPU mAb 14G1–HRP [1] (optimized conditions) is recorded as >1.0 ng/mL. In the data set with mAb (s5#34) (mAb s5#34), the “dcELISA cross-reactivity (CR)” value is recorded as 71%. For the same compound, the “icELISA CR” value is given as <1.0% with anti-CPPU mAb 14G1 and “negligible cross-reaction” with anti-CPPU mAb 14G1 (listed as thidiazuron). The “icELISA IC50” value with anti-CPPU mAb 14G1 (optimal assay conditions) is >2.5 ng/mL.
